Data taken from patent publication US10800792B2, “Inhibitors of Bruton's tyrosine kinase and method of their use” (JANSSEN PHARMACEUTICA NV, priority 2015, dated 2020).

Target: unphosphorylated-BTK kinase domain (UP-BTK), GST-tagged human BTK (389-659aa) (Homo sapiens (Human), UniProt Q06187)
Experiment: BTK kinase Lanthascreen binding assay
Details: unphosphorylated-BTK kinase domain, 50 nM Tracer 236, 60 minutes; pIC50 = negative log of the IC50 in molar
Summary of the method: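 Measures how well compounds compete with a fluorescence-labelled tracer for binding to BTK in its unphosphorylated state. IC50 values were fitted and expressed as pIC50 (negative logarithm of the molar IC50).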

Chain of unphosphorylated-BTK kinase domain (UP-BTK), GST-tagged human BTK (389-659aa) (Q06187 389-659): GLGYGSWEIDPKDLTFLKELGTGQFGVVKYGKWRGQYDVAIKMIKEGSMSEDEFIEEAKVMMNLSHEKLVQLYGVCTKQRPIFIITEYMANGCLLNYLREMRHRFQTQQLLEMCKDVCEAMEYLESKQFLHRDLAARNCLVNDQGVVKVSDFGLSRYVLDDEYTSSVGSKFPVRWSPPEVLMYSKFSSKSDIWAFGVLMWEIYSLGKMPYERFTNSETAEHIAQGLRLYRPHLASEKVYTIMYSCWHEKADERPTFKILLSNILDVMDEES

| SMILES | BTK_I_binding pIC50 |
| --- | --- |
| C=CC(=O)N1CCC[C@@H](NC(=O)c2sc3nccc4c3c2NC(=O)N4c2cccc(C(C)C)c2)C1 [Example 529, (R)—N-(1-Acryloylpiperidin-3-yl)-5-(3-isopropylphenyl)-4-oxo-4,5-dihydro-3H-1-thia-3,5,8-triazaacenaphthylene-2-carboxamide] | 7.6 |
| C=CC(=O)N1CC[C@@H](NC(=O)c2sc3nccc4c3c2NC(=O)N4c2cccc(-c3ccccc3)c2)C1 [Example 531, (R)-5-([1,1′-Biphenyl]-3-yl)-N-(1-acryloylpyrrolidin-3-yl)-4-oxo-4,5-dihydro-3H-1-thia-3,5,8-triazaacenaphthylene-2-carboxamide] | 7.5 |
| C=CC(=O)N1CCC[C@@H](NC(=O)c2sc3nccc4c3c2NC(=O)N4c2cccc(CCC)c2)C1 [Example 533, (R)—N-(1-Acryloylpiperidin-3-yl)-4-oxo-5-(3-propylphenyl)-4,5-dihydro-3H-1-thia-3,5,8-triazaacenaphthylene-2-carboxamide] | 7.5 |
| C=CC(=O)N1CCC[C@@H](NC(=O)c2sc3nccc4c3c2NC(=O)N4c2cccc(C3CCC3)c2)C1 [Example 534, (R)—N-(1-Acryloylpiperidin-3-yl)-5-(3-cyclobutylphenyl)-4-oxo-4,5-dihydro-3H-1-thia-3,5,8-triazaacenaphthylene-2-carboxamide] | 7.8 |
| C=CC(=O)N1CCC[C@@H](NC(=O)c2sc3nccc4c3c2NC(=O)N4c2ccc(Oc3ccccc3)c(C)c2)C1 [Example 536, (R)—N-(1-Acryloylpiperidin-3-yl)-5-(3-methyl-4-phenoxyphenyl)-4-oxo-4,5-dihydro-3H-1-thia-3,5,8-triazaacenaphthylene-2-carboxamide] | 7.5 |
| C=CC(=O)N1CCC[C@@H](NC(=O)c2sc3nccc4c3c2NC(=O)N4c2cncc(-c3ccccc3)c2)C1 [Example 537, (R)—N-(1-Acryloylpiperidin-3-yl)-4-oxo-5-(5-phenylpyridin-3-yl)-4,5-dihydro-3H-1-thia-3,5,8-triazaacenaphthylene-2-carboxamide] | 7.6 |
| C=CC(=O)N1CCC[C@@H](NC(=O)c2sc3nccc4c3c2NC(=O)N4c2cccc(-c3cccnc3)c2)C1 [Example 538, (R)—N-(1-Acryloylpiperidin-3-yl)-4-oxo-5-(3-(pyridin-3-yl)phenyl)-4,5-dihydro-3H-1-thia-3,5,8-triazaacenaphthylene-2-carboxamide] | 7.0 |
| C=CC(=O)N1CCC[C@@H](NC(=O)c2sc3nccc4c3c2NC(=O)N4c2cccc(-c3ccccn3)c2)C1 [Example 540, (R)—N-(1-Acryloylpiperidin-3-yl)-4-oxo-5-(3-(pyridin-2-yl)phenyl)-4,5-dihydro-3H-1-thia-3,5,8-triazaacenaphthylene-2-carboxamide] | 7.2 |
| CN(C)C/C=C/C(=O)N1CCC[C@@H](NC(=O)c2sc3nccc4c3c2NC(=O)N4c2ccc(Oc3ccccc3)c(Cl)c2)C1 [Example 541, (R,E)-5-(3-Chloro-4-phenoxyphenyl)-N-(1-(4-(dimethylamino)but-2-enoyl)piperidin-3-yl)-4-oxo-4,5-dihydro-3H-1-thia-3,5,8-triazaacenaphthylene-2-carboxamide] | 7.2 |
| C=CC(=O)N1C[C@H](NC(=O)c2sc3nccc4c3c2NC(=O)N4c2ccc(Oc3ccccc3)cc2)[C@@H](F)C1 [Example 543, N-((3S,4S)-1-Acryloyl-4-fluoropyrrolidin-3-yl)-4-oxo-5-(4-phenoxyphenyl)-4,5-dihydro-3H-1-thia-3,5,8-triazaacenaphthylene-2-carboxamide] | 7.5 |
| C=CC(=O)N1CC[C@H](C(=O)Nc2sc3nccc4c3c2NC(=O)N4c2ccc(Oc3ccccc3)cc2C)C1 [Example 544, (S)-1-Acryloyl-N-(5-(2-methyl-4-phenoxyphenyl)-4-oxo-4,5-dihydro-3H-1-thia-3,5,8-triazaacenaphthylen-2-yl)pyrrolidine-3-carboxamide] | 7.0 |
| C=CC(=O)N1CC[C@@H](C(=O)Nc2sc3nccc4c3c2NC(=O)N4c2ccc(Oc3ccccc3)cc2C)C1 [Example 545, (R)-1-Acryloyl-N-(5-(2-methyl-4-phenoxyphenyl)-4-oxo-4,5-dihydro-3H-1-thia-3,5,8-triazaacenaphthylen-2-yl)pyrrolidine-3-carboxamide] | 6.9 |
| CNCC(=O)N1CCC[C@@H](NC(=O)c2sc3nccc4c3c2NC(=O)N4c2ccc(Oc3ccccc3)cc2)C1 [Example 546, (R)—N-(1-(2-(Methylamino)acetyl)piperidin-3-yl)-4-oxo-5-(4-phenoxyphenyl)-4,5-dihydro-3H-1-thia-3,5,8-triazaacenaphthylene-2-carboxamide] | 7.4 |
| Cc1cc(Oc2ccccc2)ccc1N1C(=O)Nc2c(C(=O)N[C@@H]3CCCN(C(=O)[C@@H](C)CO)C3)sc3nccc1c23 [Example 547, N—((R)-1-((S)-3-Hydroxy-2-methylpropanol)piperidin-3-yl)-5-(2-methyl-4-phenoxyphenyl)-4-oxo-4,5-dihydro-3H-1-thia-3,5,8-triazaacenaphthylene-2-carboxamide] | 7.4 |
| C=CC(=O)N1C[C@H](NC(=O)c2sc3nccc4c3c2NC(=O)N4c2ccc(Oc3ccccc3)cc2)[C@@H](OC)C1 [Example 548, N-((3S,4S)-1-Acryloyl-4-methoxypyrrolidin-3-yl)-4-oxo-5-(4-phenoxyphenyl)-4,5-dihydro-3H-1-thia-3,5,8-triazaacenaphthylene-2-carboxamide] | 6.9 |
| Cc1cc(Oc2ccccc2)ccc1N1C(=O)Nc2c(C(=O)N[C@@H]3CCCN(C(=O)/C(F)=C/CN)C3)sc3nccc1c23 [Example 549, (R,Z)—N-(1-(4-Amino-2-fluorobut-2-enoyl)piperidin-3-yl)-5-(2-methyl-4-phenoxyphenyl)-4-oxo-4,5-dihydro-3H-1-thia-3,5,8-triazaacenaphthylene-2-carboxamide] | 7.2 |
| Cc1cc(Oc2ccccc2)ccc1N1C(=O)Nc2c(C(=O)N[C@@H]3CCCN(C(=O)/C(Cl)=C/CN)C3)sc3nccc1c23 [Example 550, (R,Z)—N-(1-(4-Amino-2-chlorobut-2-enoyl)piperidin-3-yl)-5-(2-methyl-4-phenoxyphenyl)-4-oxo-4,5-dihydro-3H-1-thia-3,5,8-triazaacenaphthylene-2-carboxamide] | 7.3 |
| CNCC(=O)N1CCC[C@@H](NC(=O)c2sc3nccc4c3c2NC(=O)N4c2cccc(-c3ccccc3)c2)C1 [Example 551, (R)-5-([1,1′-Biphenyl]-3-yl)-N-(1-(2-(methylamino)acetyl)piperidin-3-yl)-4-oxo-4,5-dihydro-3H-1-thia-3,5,8-triazaacenaphthylene-2-carboxamide] | 6.8 |
| CN1CCC[C@@H](NC(=O)c2sc3nccc4c3c2NC(=O)N4c2cccc(-c3ccccc3)c2)C1 [Example 552, (R)-5-([1,1′-Biphenyl]-3-yl)-N-(1-methylpiperidin-3-yl)-4-oxo-4,5-dihydro-3H-1-thia-3,5,8-triazaacenaphthylene-2-carboxamide] | 6.8 |
| Cc1cccc(-c2cccc(N3C(=O)Nc4c(C(=O)N[C@@H]5CCCNC5)sc5nccc3c45)c2)c1 [Example 553, (R)-5-(3′-Methyl-[1,1′-biphenyl]-3-yl)-4-oxo-N-(piperidin-3-yl)-4,5-dihydro-3H-1-thia-3,5,8-triazaacenaphthylene-2-carboxamide] | 6.8 |
| Cc1ccccc1-c1cccc(N2C(=O)Nc3c(C(=O)N[C@@H]4CCCNC4)sc4nccc2c34)c1 [Example 554, (R)-5-(2′-Methyl-[1,1′-biphenyl]-3-yl)-4-oxo-N-(piperidin-3-yl)-4,5-dihydro-3H-1-thia-3,5,8-triazaacenaphthylene-2-carboxamide] | 6.7 |
| C=CC(=O)N1CCC[C@@H](NC(=O)c2sc3nccc4c3c2NC(=O)N4c2cnc(Oc3ccccc3)nc2)C1 [Example 556, (R)—N-(1-Acryloylpiperidin-3-yl)-4-oxo-5-(2-phenoxypyrimidin-5-yl)-4,5-dihydro-3H-1-thia-3,5,8-triazaacenaphthylene-2-carboxamide] | 7.5 |
| C=CC(=O)N1C[C@H](O)C[C@@H](NC(=O)c2sc3nccc4c3c2NC(=O)N4c2ccc(OC(C)C)cc2C)C1 [Example 557, N-((3R,5R)-1-Acryloyl-5-hydroxypiperidin-3-yl)-5-(4-isopropoxy-2-methylphenyl)-4-oxo-4,5-dihydro-3H-1-thia-3,5,8-triazaacenaphthylene-2-carboxamide] | 7.3 |
| C=CC(=O)N1CC[C@@H](NC(=O)c2sc3nccc4c3c2NC(=O)N4c2ccc(Oc3ccccc3)c(Cl)c2)C1 [Example 558, (R)—N-(1-Acryloylpyrrolidin-3-yl)-5-(3-chloro-4-phenoxyphenyl)-4-oxo-4,5-dihydro-3H-1-thia-3,5,8-triazaacenaphthylene-2-carboxamide] | 7.7 |
| N#C/C(=C\C1CC1)C(=O)N1CCC[C@@H](NC(=O)c2sc3nccc4c3c2NC(=O)N4c2ccnc(-c3ccccc3)c2)C1 [Example 559, (R,E)-N-(1-(2-Cyano-3-cyclopropylacryloyl)piperidin-3-yl)-4-oxo-5-(2-phenylpyridin-4-yl)-4,5-dihydro-3H-1-thia-3,5,8-triazaacenaphthylene-2-carboxamide] | 8.2 |
| C=CC(=O)N1CCC[C@@H](NC(=O)c2sc3nccc4c3c2NC(=O)N4c2cccc(OC3CCCCC3)c2)C1 [Example 560, (R)—N-(1-Acryloylpiperidin-3-yl)-5-(3-(cyclohexyloxy)phenyl)-4-oxo-4,5-dihydro-3H-1-thia-3,5,8-triazaacenaphthylene-2-carboxamide] | 7.6 |
